Experimental data as given in PubChem BioAssay AID248 (DTP/NCI, 2004).
“And” between values parts separate entries of the source, which are not always exact repeats. Identical values can stand only once. Inconclusive results and toxic doses are left out. No stated cut-off is given here; in the data, active means T/C of 150% or more; inactive means T/C below 125%.

Tested on: L1210 leukemia ip in BDF1 mice, survival T/C
Assay: NCI In Vivo Anticancer Drug Screen. Data for tumor model L1210 Leukemia (intraperitoneal) in B6D2F1 (BDF1) mice
Conditions: endpoint: mean survival time, higher = longer survival
Procedure, shortened: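 Each compound was tested against a transplantable tumor grown in mice. The endpoint was survival, with treated animals benchmarked against vehicle controls as a simple ratio.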

[1] = dose: 100.0 mg/kg/injection, schedule: Q01DX001 (ip), vehicle: other
[2] = dose: 100.0 mg/kg/injection, schedule: Q04DX003 (ip), vehicle: saline
[3] = dose: 200.0 mg/kg/injection, schedule: Q01DX001 (ip), vehicle: other
[4] = dose: 200.0 mg/kg/injection, schedule: Q04DX003 (ip), vehicle: saline
[5] = dose: 400.0 mg/kg/injection, schedule: Q01DX001 (ip), vehicle: other
[6] = dose: 400.0 mg/kg/injection, schedule: Q04DX003 (ip), vehicle: saline
[7] = dose: 100.0 mg/kg/injection, schedule: Q01DX001 (ip), vehicle: saline
[8] = dose: 100.0 mg/kg/injection, schedule: Q04DX003 (ip), vehicle: Klucel (hydroxypropylcellulose) (HPC)
[9] = dose: 100.0 mg/kg/injection, schedule: Q04DX002 (ip), vehicle: saline with Tween-80
[10] = dose: 200.0 mg/kg/injection, schedule: Q04DX003 (ip), vehicle: Klucel (hydroxypropylcellulose) (HPC)
[11] = dose: 50.0 mg/kg/injection, schedule: Q01DX009 (ip), vehicle: saline with Tween-80
[12] = dose: 100.0 mg/kg/injection, schedule: Q01DX009 (ip), vehicle: saline with Tween-80
[13] = dose: 200.0 mg/kg/injection, schedule: Q01DX009 (ip), vehicle: saline with Tween-80
[14] = dose: 400.0 mg/kg/injection, schedule: Q04DX002 (ip), vehicle: saline with Tween-80

Measured: T/C

O=C(c1ccccc1)C1CCCCC1
inactive: [1] 111 % of control | [2] 104 % of control | [3] 100 % of control | [4] 96 % of control | [5] 105 % of control | [6] 96 % of control

O=C1OCC/C1=C/OCCCCCO/C=C1/CCOC1=O
inactive: dose: 100.0 mg/kg/injection, schedule: Q04DX002 (ip), vehicle: Klucel (hydroxypropylcellulose) (HPC) 106 % of control | dose: 200.0 mg/kg/injection, schedule: Q04DX002 (ip), vehicle: Klucel (hydroxypropylcellulose) (HPC) 97 % of control | dose: 400.0 mg/kg/injection, schedule: Q04DX002 (ip), vehicle: Klucel (hydroxypropylcellulose) (HPC) 90 % of control

CCOC(=O)C1=C(C#N)C(C(=O)OCC)c2ncccc21 (stereo not drawn)
inactive: dose: 50.0 mg/kg/injection, schedule: Q01DX005 (ip), vehicle: saline 97 % of control | dose: 100.0 mg/kg/injection, schedule: Q01DX005 (ip), vehicle: saline 88 % of control | dose: 200.0 mg/kg/injection, schedule: Q01DX005 (ip), vehicle: saline 87 % of control | dose: 400.0 mg/kg/injection, schedule: Q01DX005 (ip), vehicle: saline 95 % of control

CCC(CC)c1ccc2ccccc2c1
inactive: [7] 100 % of control | dose: 200.0 mg/kg/injection, schedule: Q01DX001 (ip), vehicle: saline 98 % of control | dose: 400.0 mg/kg/injection, schedule: Q01DX001 (ip), vehicle: saline 101 % of control

COc1ccc([N+](=O)[O-])cc1C(=O)O
inactive: dose: 75.0 mg/kg/injection, schedule: Q01DX001 (ip), vehicle: saline 104 % of control | dose: 75.0 mg/kg/injection, schedule: Q04DX003 (ip), vehicle: acetone 100 % of control | dose: 150.0 mg/kg/injection, schedule: Q01DX001 (ip), vehicle: saline 95 % of control | dose: 150.0 mg/kg/injection, schedule: Q04DX003 (ip), vehicle: acetone 89 % of control | dose: 300.0 mg/kg/injection, schedule: Q01DX001 (ip), vehicle: saline 104 % of control | dose: 300.0 mg/kg/injection, schedule: Q04DX003 (ip), vehicle: acetone 93 % of control

COC(=O)Cc1c[nH]c(=O)[nH]c1=O
inactive: dose: 100.0 mg/kg/injection, schedule: Q01DX009 (ip), vehicle: water 102 % of control | dose: 100.0 mg/kg/injection, schedule: Q04DX003 (ip), vehicle: water 93 % of control | dose: 200.0 mg/kg/injection, schedule: Q01DX009 (ip), vehicle: water 98 % of control | dose: 200.0 mg/kg/injection, schedule: Q04DX003 (ip), vehicle: water 104 % of control | dose: 400.0 mg/kg/injection, schedule: Q04DX003 (ip), vehicle: water 95 % of control

CCCCCCCCCc1ccc(OC(C)OCCOCCOCC)cc1 (stereo not drawn)
inactive: dose: 100.0 mg/kg/injection, schedule: Q04DX002 (ip), vehicle: saline 97 % of control | dose: 200.0 mg/kg/injection, schedule: Q04DX002 (ip), vehicle: saline 100 % of control | dose: 400.0 mg/kg/injection, schedule: Q04DX002 (ip), vehicle: saline 105 % of control

N#CCCC1C2CCC(C2)C1C#N (stereo not drawn)
inactive: dose: 3.0 mg/kg/injection, schedule: Q01DX009 (ip), vehicle: Klucel (hydroxypropylcellulose) (HPC) 96 % of control | dose: 3.0 mg/kg/injection, schedule: Q04DX003 (ip), vehicle: Klucel (hydroxypropylcellulose) (HPC) 96 % of control | dose: 6.0 mg/kg/injection, schedule: Q01DX009 (ip), vehicle: Klucel (hydroxypropylcellulose) (HPC) 96 % of control | dose: 6.0 mg/kg/injection, schedule: Q04DX003 (ip), vehicle: Klucel (hydroxypropylcellulose) (HPC) 98 % of control | dose: 12.0 mg/kg/injection, schedule: Q01DX009 (ip), vehicle: Klucel (hydroxypropylcellulose) (HPC) 98 % of control | dose: 12.0 mg/kg/injection, schedule: Q04DX003 (ip), vehicle: Klucel (hydroxypropylcellulose) (HPC) 98 % of control | dose: 12.5 mg/kg/injection, schedule: Q04DX003 (ip), vehicle: Klucel (hydroxypropylcellulose) (HPC) 105 % of control

O=[N+]([O-])c1ccc(S(=O)C2CCCCC2Cl)c([N+](=O)[O-])c1 (stereo not drawn)
inactive: dose: 100.0 mg/kg/injection, schedule: Q01DX009 (ip), vehicle: Klucel (hydroxypropylcellulose) (HPC) 111 % of control

CC(NN)c1ccccc1 (stereo not drawn)
inactive: dose: 50.0 mg/kg/injection, schedule: Q01DX001 (ip), vehicle: saline 101 % of control | [7] 105 % of control

CC(C)(C)C1COP(=S)(c2ccccc2)OC1 (stereo not drawn)
inactive: [8] 96 % of control

CCCCSP(=O)(N1CCCCC1)N1CCCCC1
inactive: dose: 25.0 mg/kg/injection, schedule: Q04DX002 (ip), vehicle: saline with Tween-80 97 % of control | dose: 50.0 mg/kg/injection, schedule: Q04DX002 (ip), vehicle: saline with Tween-80 97 % of control | [9] 92 % of control and 94 % of control

CC(=O)NCCCCNS(=O)(=O)c1ccc(C)cc1
inactive: [8] 95 % of control | [10] 95 % of control | dose: 400.0 mg/kg/injection, schedule: Q04DX003 (ip), vehicle: Klucel (hydroxypropylcellulose) (HPC) 93 % of control

COc1ccc(C(C)=O)c(OC)c1C
inactive: [2] 95 % of control | [4] 90 % of control | [6] 98 % of control

NC(=O)Nc1n[nH]c(-c2ccccc2)n1
inactive: dose: 100.0 mg/kg/injection, schedule: Q01DX009 (ip), vehicle: saline 90 % of control

CO[Si](OC)(OC)OC
inactive: dose: 25.0 mg/kg/injection, schedule: Q01DX009 (ip), vehicle: saline with Tween-80 92 % of control | dose: 25.0 mg/kg/injection, schedule: Q04DX003 (ip), vehicle: saline 94 % of control | [11] 92 % of control | dose: 50.0 mg/kg/injection, schedule: Q04DX003 (ip), vehicle: saline 108 % of control | dose: 100.0 mg/kg/injection, schedule: Q04DX003 (ip), vehicle: saline with Tween-80 101 % of control | [2] 103 % of control

COCCCNS(=O)(=O)c1ncnc2nc[nH]c12
inactive: dose: 10.0 mg/kg/injection, schedule: Q01DX Z (ip), vehicle: carboxymethylcellulose (CMC) 105 % of control | dose: 20.0 mg/kg/injection, schedule: Q01DX Z (ip), vehicle: carboxymethylcellulose (CMC) 103 % of control | dose: 25.0 mg/kg/injection, schedule: Q01DX Z (ip), vehicle: carboxymethylcellulose (CMC) 105 % of control | dose: 40.0 mg/kg/injection, schedule: Q01DX Z (ip), vehicle: carboxymethylcellulose (CMC) 103 % of control | dose: 50.0 mg/kg/injection, schedule: Q01DX Z (ip), vehicle: carboxymethylcellulose (CMC) 110 % of control | dose: 80.0 mg/kg/injection, schedule: Q01DX Z (ip), vehicle: carboxymethylcellulose (CMC) 93 % of control | dose: 100.0 mg/kg/injection, schedule: Q01DX Z (ip), vehicle: carboxymethylcellulose (CMC) 117 % of control | dose: 125.0 mg/kg/injection, schedule: Q01DX Z (ip), vehicle: carboxymethylcellulose (CMC) 88 % of control | dose: 250.0 mg/kg/injection, schedule: Q01DX Z (ip), vehicle: carboxymethylcellulose (CMC) 87 % of control

CCC(=O)c1ccc(N2CCOCC2)cc1
inactive: dose: 50.0 mg/kg/injection, schedule: Q04DX003 (ip), vehicle: Klucel (hydroxypropylcellulose) (HPC) 97 % of control | [1] 107 % of control | [8] 101 % of control | [3] 107 % of control | [10] 108 % of control | [5] 107 % of control

Cc1ccc(/C([O-])=C(\C(=S)Nc2cccc(C)c2)[n+]2ccccc2)cc1
inactive: [12] 103 % of control and 112 % of control | [9] 93 % of control and 95 % of control | [13] 93 % of control and 100 % of control | dose: 200.0 mg/kg/injection, schedule: Q04DX002 (ip), vehicle: saline with Tween-80 93 % of control and 115 % of control | dose: 400.0 mg/kg/injection, schedule: Q01DX009 (ip), vehicle: saline with Tween-80 95 % of control and 101 % of control | [14] 98 % of control and 107 % of control

CC(C)(CBr)COC(=O)Nc1ccc2ccccc2c1
inactive: [11] 95 % of control | [12] 95 % of control | [13] 88 % of control

O=C1OC(c2ccc([N+](=O)[O-])cc2)=N/C1=C\c1ccc2c(c1)OCO2
inactive: [9] 92 % of control | [14] 87 % of control
